In article PMC12648443, “Modifications of NU-9, a potent protein aggregation inhibitor. Properties and activity in a cellular model of amyotrophic lateral sclerosis” (Bioorganic chemistry, 2025):

Columns and labels:
[1] = test system: MG132-induced mutant SOD1 intracellular aggregation in PC12-SOD1^G85R YFP cells; assay: Protection against MG132-induced mut-SOD1 intracellular aggregation (fluorescence microscopy); type: cell-based; conditions: for EC50 / EC50 against MG132-induced mutant SOD1 intracellular aggregation: PC12-SOD1^G85R YFP cells, 0.7 μM MG132, 72 h, Inactive = no decrease of aggregates at 10 μM vs vehicle; for loss of potency relative to NU-9: anti-aggregation EC50 compared with NU-9
Protocol: The PC12 Tet-Off-SOD1^G85R YFP cells were cultured in DMEM media supplemented with 10 % horse serum, 5 % Tet-approved FBS, 1 % Penstrep, 1× L-glutamine, 200 μg/mL hygromycin, 100 μg/mL G418, with 1 μg/mL Doxycycline and were incubated at 37 °C in humidified air with […] until 90–95 % confluency. To induce the expression of SOD1^G85R YFP, the Doxycycline was removed at least 4 days before the experiment. To remove the Doxycycline, the media was removed, and the cells were washed 3 times with 1xPBS. The cells were then cultured in standard culture media without Doxycycline. To set up the assay, the cells were then seeded into 96-well cell culture plates (Greiner Bio-One Catalog #655090) at a concentration of 50,000 cells/well with a final volume of 100 μL/well and incubated in the CO2 incubator at 37 °C for 24 h. The media were removed from the cells and replaced with 100 μL of media containing 0.1 % DMSO or compounds, and incubated in the CO2 incubator at 37 °C for 6 h. The media were then replaced with fresh 100 μL of media containing the diluted compounds with 0.7 μM (−)-MG-132, and the plates were incubated for 72 h under culture conditions. After 72 h, the cells were stained with Hoescht 33,342 (55 μg/mL, 10 μL/well) and imaged (lex = 358, 513 nm) using a Molecular Devices ImageXpress Micro Confocal High-Content Imaging System equipped with a 40× objective. […] Image binning was set to 2. DAPI fluorescence was captured using an exposure time of 300 ms, and FITC fluorescence was captured using an exposure time of 400 ms. A 13-plane z-series was acquired for each field of view with a step size of 3 μm. For each condition, 2 sets of 9 images were generated in a 3 × 3 grid to separately image the SOD1^G85R YFP proteins and the nuclei stained with Hoescht 33,342. Image analysis was performed with MetaXpress software (Molecular Devices) using the Transfluor module. Parameters for puncta detection (aggregates) were set with a minimum pit width of 2 μm and a maximum pit width of 5 μm. Signal intensity thresholds were defined as 700 grayscale units above the local background. The analysis provided the average area of each cell that is covered by puncta (pit/cell), which are indicated by bright green spots on the SOD1^G85RYFP image set.
The assay was performed in triplicate for each condition tested, and wells containing the media with vehicle (0.1 % DMSO) or (−)-MG-132 alone were used as controls representing the minimum and maximum aggregate formation. […] The data for EC50 determination was treated with Prism and fitted using a semi-logarithmic curve for determination of the EC50 values of NU9 and compounds 4, 6, 20 and 21.

[2] = Parallel artificial membrane permeability assay - blood brain barrier (PAMPA-BBB); conditions: for Log Pe: High permeability LogPe > −5.33, No permeability LogPe < −6.14; for Papp at 18 h, 250 μM: pig, PAMPA, pH 7.5
Protocol: A solution of 1 × PBS (pH 7.5) was initially prepared by the dilution of a commercially available 10 × PBS solution. […] A solution of porcine brain lipid (PBL) (20 mg/mL in dodecane) was prepared, and 4 μL of this solution was used to coat the filters on the bottom of the PAMPA donor plates (Sigma Aldrich #MAIPNTR10). After air drying for 20 min, the donor plate wells were charged with 250 μL of the solutions of the test compounds or the controls. The donor plate was then placed over the acceptor plate (Sigma Aldrich #MATRNPS50), in which wells were previously filled with 1 × PBS (2 % DMSO v/v) solution. The PAMPA sandwich was closed with parafilm and incubated at 25 °C for 18 h in a humidity-saturated atmosphere with orbital agitation. […] The UV spectra (250–400 nm) of each well were acquired on a BioTek Synergy H1 MD plate reader equipped with a monochromator at room temperature.
CA(t) is the concentration of the compounds at the final time of incubation on the acceptor well; CD(0) and CD(t) are the concentration of the compounds at the initial time of incubation and at the final time of incubation on the donor well, respectively.

P-gp = molecular target: T1, P-gp (Homo sapiens, UniProt P08183); assay: MDCK-MDR1 bidirectional permeability / efflux assay; type: in vitro ADME; conditions: MDCK-MRD1, absence of zosuquidar
T1 construct: host or cells: MDCK-MDR1 (Madin Darby canine kidney cells carrying the MDR1 gene)
Protocol: The assay was carried out at Sai Life Sciences. Stock solutions of 6, 20, assay controls loperamide, atenolol, and propanolol (4 and 20 mM), and P-gp inhibitor zosuquidar (10 mM) were prepared in DMSO. Then the stock solutions from each test compound were diluted in HBSS buffer containing 10 mM HEPES to obtain the assay working solutions without the P-gp inhibitor at 2 and 10 μM (0.1 % DMSO v/v). Into working solutions containing zosuquidar (5 μM) were individually diluted 6, 20, and loperamide to obtain working solutions containing the test compounds at 2 or 10 μM and zosuquidar at 5 μM.
The MDCK-MDR1 (Madin Darby canine kidney - Multidrug Resistance gene-1) cells were cultured in DMEM media supplemented with 10 % FBS and antibiotics. For transport studies, cells were seeded into PET trans filter membranes (Millipore #PSRP010R5; 1.0 μm pore size) at a density of 1.2 × 10^5 cells/well and colchicine was added to the flasks and plates according to their volume. After 24 h, the media were replaced by fresh media and then changed every 2 days over 8 days. The media were removed from the wells of the basal and apical compartments of the plates, and a solution of HBSS with or without zosuquidar (5 μM) was added to the apical (400 μL) and basal (800 μL) sides of the plates. The plates were pre-incubated at 37 °C for 30 min in humidified air with 5 % CO2. The TTER (Transepithelial-Transendothelial Electrical Resistance) value for each well was recorded (assay TEER >83 Ω.cm^2). The buffer was removed from both compartments, and for the apical to basal direction transport determination, the apical compartment was loaded with 400 μL of the working solutions of the tested compounds or controls (2 or 10 μM) in the presence or absence of zosuquidar (5 μM), and the basal compartment was loaded with 800 μL of HBSS (0.1 % DMSO v/v). For the basal to apical direction transport determination, the compartments were loaded in their reverse order. The assay was performed in duplicate for the two transport directions [apical to basolateral (A → B) and basolateral to apical (B → A)]. After 120 min, 100 μL samples from both the apical and basal sides of the plate were transferred to new 96-deep well plates, quenched with acetonitrile containing an internal standard, vortexed for 5 min, and then centrifuged at 4000 rpm for 10 min. The same procedure was used to prepare a 96-deep well plate containing non-assayed working solutions (t = 0 concentrations). After centrifugation, 100 μL of the supernatant of each well was transferred to a new 96-well plate, and the samples were analyzed by LC-MS/MS.
For each experiment, the apparent permeability (Papp) for each direction and the efflux ratio (ER) were determined by the equations: Papp(cm/s)=(dQ/dt)/A×Co
where dQ/dt is the rate of permeation of the tested compounds across the (0 and 120 min) after correcting for dilution; A is the area of the filter (0.7 cm^2); Co is the initial concentration of the compounds on the donor compartment.
Where P(B→A) is the apparent permeability of the compounds from the basal to the apical direction and P(A→B) is the apparent permeability from the apical to basal direction. Lucifer Yellow was used as a control of the assay to evaluate monolayer integrity after incubation with the working solutions of the compounds, and the results were validated if the permeability of Lucifer Yellow from the apical to the basal side after 1-h incubation was kept <2 %. The results are presented as an average of two independent experiments.

cortical neurons = test system: cortical neurons; set-up: method as in PMID 22189273; conditions: cited from earlier work
[3] = test system: cells containing SOD1 mutations associated with ALS; set-up: method as in PMID 21073276, PMID 22189273, PMID 22837812; conditions: Fig. 1, evolution of CHD series; cited from earlier work

T1 sequence (P08183 whole entry): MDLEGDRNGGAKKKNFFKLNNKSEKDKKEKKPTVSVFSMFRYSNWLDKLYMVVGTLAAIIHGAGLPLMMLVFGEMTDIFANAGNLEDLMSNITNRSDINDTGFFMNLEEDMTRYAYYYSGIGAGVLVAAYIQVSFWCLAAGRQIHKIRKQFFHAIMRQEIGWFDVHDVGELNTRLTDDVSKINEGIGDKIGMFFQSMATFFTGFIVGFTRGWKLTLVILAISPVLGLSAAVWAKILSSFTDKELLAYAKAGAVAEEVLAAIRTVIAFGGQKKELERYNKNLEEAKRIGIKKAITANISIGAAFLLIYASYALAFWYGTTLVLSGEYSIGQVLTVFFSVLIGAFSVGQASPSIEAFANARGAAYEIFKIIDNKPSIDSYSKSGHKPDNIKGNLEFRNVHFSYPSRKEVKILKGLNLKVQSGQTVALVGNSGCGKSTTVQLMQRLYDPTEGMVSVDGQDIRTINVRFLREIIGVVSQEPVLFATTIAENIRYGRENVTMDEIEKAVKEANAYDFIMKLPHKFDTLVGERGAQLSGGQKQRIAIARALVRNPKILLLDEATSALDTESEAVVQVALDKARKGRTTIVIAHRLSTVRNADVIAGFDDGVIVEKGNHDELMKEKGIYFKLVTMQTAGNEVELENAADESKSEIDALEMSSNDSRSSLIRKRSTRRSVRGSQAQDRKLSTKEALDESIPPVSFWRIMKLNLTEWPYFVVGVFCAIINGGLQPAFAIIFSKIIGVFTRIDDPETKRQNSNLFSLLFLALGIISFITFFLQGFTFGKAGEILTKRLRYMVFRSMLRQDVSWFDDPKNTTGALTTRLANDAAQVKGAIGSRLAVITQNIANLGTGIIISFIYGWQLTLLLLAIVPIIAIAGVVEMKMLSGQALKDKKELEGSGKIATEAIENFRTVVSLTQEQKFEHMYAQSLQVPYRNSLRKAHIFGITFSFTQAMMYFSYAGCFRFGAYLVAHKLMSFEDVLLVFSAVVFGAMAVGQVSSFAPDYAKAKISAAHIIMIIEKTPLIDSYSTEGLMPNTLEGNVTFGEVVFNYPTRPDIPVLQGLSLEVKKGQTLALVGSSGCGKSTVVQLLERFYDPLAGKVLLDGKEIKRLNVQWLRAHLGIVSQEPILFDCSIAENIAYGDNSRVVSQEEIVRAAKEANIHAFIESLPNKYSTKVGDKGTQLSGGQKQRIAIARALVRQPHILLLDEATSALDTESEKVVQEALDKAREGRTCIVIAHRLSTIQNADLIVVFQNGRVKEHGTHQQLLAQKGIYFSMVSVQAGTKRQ

## O=C1CC(=O)CN(CCc2cc(C(F)(F)F)cc(C(F)(F)F)c2)C1 [Compound 10, 1-(3,5-Bis(trifluoromethyl)phenethyl)piperidine-3,5-dione]
[1]
  EC50: > 10 µM

## OC1CC2CC(C1)C(Cc1cc(C(F)(F)F)cc(C(F)(F)F)c1)O2 (stereo not drawn) [Compound 13]
[1]
  EC50 against MG132-induced mutant SOD1 intracellular aggregation: Inactive

## O[C@@H]1CC([C@H](O)Cc2cc(C(F)(F)F)cc(C(F)(F)F)c2)C[C@H](O)C1 (stereo partly drawn) [Compound 5, (1R,3S)-5-((R)-2-(3,5-Bis(trifluoromethyl)phenyl)-1-hydroxyethyl)cyclohexane-1,3-diol]
[1]
  EC50 against MG132-induced mutant SOD1 intracellular aggregation: Inactive

## OC1CC2CC(C1)C(Cc1cc(C(F)(F)F)cc(C(F)(F)F)c1)O2 (stereo not drawn) [Compound 15]
[1]
  EC50 against MG132-induced mutant SOD1 intracellular aggregation: Inactive

## O=C1CC(=O)CC(C2(Oc3cc(C(F)(F)F)cc(C(F)(F)F)c3)CCC2)C1 [Compound 21, 5-(1-(3,5-bis(trifluoromethyl)phenoxy)cyclobutyl)cyclohexane-1,3-dione]
[2]; PAMPA-BBB
  Log Pe: −4.77
[2]
  Papp at 18 h, 250 μM: 168 ± 5.4 nm/s
[1]
  EC50: 5.37 ± 1.03 µM
  loss of potency relative to NU-9: > 2 fold

## Cl.N[C@@H]1C[C@H]2C[C@@H](C1)[C@H](Cc1cc(C(F)(F)F)cc(C(F)(F)F)c1)O2 [Compound 19, (1R,3S,5R,7S)-7-(3,5-Bis(trifluoromethyl)benzyl)-6-oxabicyclo[3.2.1]octan-3-aminium chloride]
[1]
  EC50 against MG132-induced mutant SOD1 intracellular aggregation: Inactive

## O=C1CC2CC(C1)C(Cc1cc(C(F)(F)F)cc(C(F)(F)F)c1)O2 (stereo not drawn) [Compound 12]
[1]
  EC50 against MG132-induced mutant SOD1 intracellular aggregation: Inactive

## O=C1CC(=O)C(Cc2cc(C(F)(F)F)cc(C(F)(F)F)c2)C1 (stereo not drawn) [Compound 8, 4-(3,5-Bis(trifluoromethyl)benzyl)cyclopentane-1,3-dione]
[1]
  EC50: > 10 µM

## COC1=CC(=O)C(Cc2cc(C(F)(F)F)cc(C(F)(F)F)c2)C1 (stereo not drawn) [Compound 7, 5-(3,5-Bis(trifluoromethyl)benzyl)-3-methoxycyclopent-2-en-1-one]
[1]
  EC50 against MG132-induced mutant SOD1 intracellular aggregation: Inactive

## Cl.N[C@H]1C[C@H]2C[C@@H](C1)[C@H](Cc1cc(C(F)(F)F)cc(C(F)(F)F)c1)O2 [Compound 18, (1R,3R,5R,7S)-7-(3,5-Bis(trifluoromethyl)benzyl)-6-oxabicyclo[3.2.1]octan-3-aminium chloride]
[1]
  EC50 against MG132-induced mutant SOD1 intracellular aggregation: Inactive

## CN(C)C(=O)C(CCN1CCC(O)(c2ccc(Cl)cc2)CC1)(c1ccccc1)c1ccccc1 [Lop., loperamide, reference compound]
P-gp
  Papp (B → A): 25.70 ± 0.35 10^−6 cm/s
P-gp; dog, MDCK-MDR1, read-out: Efflux Ratio
  efflux ratio at 120 min: 128
P-gp; dog, MDCK-MDR1, read-out: Papp (A → B)
  Papp A→B at 120 min: 2 ± 0.6 nm/s

## OC1CC2CC(C1)C(Cc1cc(C(F)(F)F)cc(C(F)(F)F)c1)O2 (stereo not drawn) [Compound 14]
[1]
  EC50 against MG132-induced mutant SOD1 intracellular aggregation: Inactive

## O=C1CC(=O)CC(c2cc(C(F)(F)F)cc(C(F)(F)F)c2)C1 [Compound 2]
Cortical neurons
  activity in cortical neuron protection assays: inactive
[3]
  EC50: 0.7 µM

## CC1=NN(c2ccccc2)C(=O)C1 [Edaravone, edaravone, reference compound]
[2]; PAMPA-BBB, 250 μM, PBS pH 7.5, 25 °C, 18 h
  Pe: 17.43 ± 3.20 10^−6 cm/s
[2]; PAMPA-BBB
  Log Pe: −4.76

## O=C1CC(=O)CC(c2ccc(F)cc2)C1 [Compound 1]
[3]
  EC50: 0.8 µM

## OC1CC2CC(C1)C(c1cc(C(F)(F)F)cc(C(F)(F)F)c1)O2 (stereo not drawn) [Compound 17]
[1]
  EC50 against MG132-induced mutant SOD1 intracellular aggregation: Inactive

## O=C1CC2CC(C1)C(Cc1cc(C(F)(F)F)cc(C(F)(F)F)c1)O2 (stereo not drawn) [Compound 11]
[1]
  EC50 against MG132-induced mutant SOD1 intracellular aggregation: Inactive

## O=C1CC(=O)CC(C(O)Cc2cc(C(F)(F)F)cc(C(F)(F)F)c2)C1 (stereo not drawn) [Compound 4, 5-(2-(3,5-Bis(trifluoromethyl)phenyl)-1-hydroxyethyl)cyclohexane-1,3-dione]
[2]; PAMPA-BBB
  Log Pe: −6.61
[2]
  Papp at 18 h, 250 μM: 2.5 ± 0.1 nm/s
[1]
  EC50: 7.89 ± 1.88 µM
  loss of potency relative to NU-9: 3 fold

## O=C1CC2CC(C1)C(c1cc(C(F)(F)F)cc(C(F)(F)F)c1)O2 (stereo not drawn) [Compound 16]
[1]
  EC50: > 10 µM
[1]; at 10 μM, 72 h
  decrease in MG132-induced SOD-1^G85R aggregate formation: mild anti-aggregation activity
